Laboratory results reported in patent publication US20240368194A1, “IRAK4 DEGRADATION AGENT, AND PREPARATION METHOD THEREFOR AND USE THEREOF” (SHANGHAI LEADINGTAC PHARMACEUTICAL CO. LTD., priority 2021, published 2024).

Columns and labels:
[1] = biological target: IRAK4 kinase (Homo sapiens (Human), UniProt Q9NWZ3); assay: IRAK4 kinase activity test (KinEASE-STK S1 HTRF kit); assay type: biochemical; settings: 2.5 nM IRAK4 kinase, 7 μM ATP, 37° C. 120 min
Method: Then 2.5 nM 1RAK4 kinase (Carna), 1 μM biotinylated polypeptide substrate (Cisbio) and 7 μM adenosine triphosphate (Sigma-Aldrich) were sequentially added, and the mixtures were incubated at 37° C. for 120 min. Subsequently, an anti-phosphoserine/threonine antibody (Cisbio) conjugated with a europium element compound and conjugated modified XL665 streptavidin (Cisbio) were added to the reaction systems to stop the reactions. After 1 h of incubation at room temperature, the fluorescence intensity of each well was measured at the excitation wavelength of 337 nm and the emission wavelengths of 620 nm and 665 nm with a microplate reader EnVision (PerkinElmer) in the HTRF mode, and Ratio values were calculated using the formula Ratio=(665 nm/620 nm)×[…]. The inhibition rate of the compound at each concentration was calculated by comparing the fluorescence intensity ratio with that of the control group. Then a non-linear curve fitting of logarithmic concentration-inhibition rate was performed using GraphPad Prism 7, and the IC50 value of the compound was obtained.

[2] = biological target: IRAK4 protein in THP-1 cells (Homo sapiens (Human), UniProt Q9NWZ3); assay: Degradation of IRAK4 in THP-1 cells, human IRAK4 AlphaLISA assay; assay type: cell-based; settings: 24 h incubation
Sequence of IRAK4 protein in THP-1 cells (Q9NWZ3 whole entry): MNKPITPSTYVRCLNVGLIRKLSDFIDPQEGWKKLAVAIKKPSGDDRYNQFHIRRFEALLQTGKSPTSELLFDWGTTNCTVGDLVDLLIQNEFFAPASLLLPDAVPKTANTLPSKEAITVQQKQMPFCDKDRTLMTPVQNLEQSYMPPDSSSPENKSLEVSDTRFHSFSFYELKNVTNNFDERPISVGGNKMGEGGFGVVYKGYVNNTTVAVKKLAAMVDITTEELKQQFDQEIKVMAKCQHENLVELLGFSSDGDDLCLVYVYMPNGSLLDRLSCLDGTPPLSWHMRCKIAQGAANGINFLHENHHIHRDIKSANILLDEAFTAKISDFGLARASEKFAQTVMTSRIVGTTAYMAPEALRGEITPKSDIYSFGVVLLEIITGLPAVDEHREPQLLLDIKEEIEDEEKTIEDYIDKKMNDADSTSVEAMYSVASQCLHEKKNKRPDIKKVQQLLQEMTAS
Procedure, shortened: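 THP-1 cells, after overnight plating, exposed 24 h at 37 °C to compound at 0.03-3000 nM final. Lysate IRAK4 read by Western blot and by AlphaLISA (acceptor beads 10 μg/mL, biotin anti-IRAK4 1 nM, donor beads 40 μg/mL, 23 °C). DC50 and Dmax from log concentration-response fit.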

Sequence of IRAK4 kinase (Q9NWZ3 whole entry): as above

Row | Structure (SMILES) | IC50 [1] [µM] | DC50 [2] [µM] | Dmax [2] [%]
1 | O=C1CCN(c2cc(C(=O)N3CCC(CCN4CCC(n5cc(NC(=O)c6cnn7ccc(N8CCOCC8)nc67)c(C(F)F)n5)CC4)CC3)ccc2F)C(=O)N1 [Example 37, N-(3-(difluoromethyl)-1-(1-(2-(1-(3-(2,4-dioxotetrahydropyrimidin-1(2H)-yl)-4-fluorobenzoyl)piperidin-4-yl)ethyl)piperidin-4-yl)-1H-pyrazol-4-yl)-5-morpholinopyrazolo[1,5-a]pyrimidine-3-carboxamide] | 0.0131 | 0.042 | 81.1
2 | O=C1CCN(c2cc(C(=O)N3CCN(CCCCN4CCC(n5cc(NC(=O)c6cnn7ccc(N8C[C@H]9C[C@@H]8CO9)nc67)c(C(F)F)n5)CC4)CC3)ccc2Cl)C(=O)N1 [Example 40, 5-((1R,4R)-2-oxa-5-azabicyclo[2.2.1]heptan-5-yl)-N-(1-(1-(4-(4-(4-chloro-3-(2,4-dioxotetrahydropyrimidin-1(2H)-yl)benzoyl)piperazin-1-yl)-n-butyl)piperidin-4-yl)-3-(difluoromethyl)-1H-pyrazol-4-yl)pyrazolo[1,5-a]pyrimidine-3-carboxamide] | 0.0345 | 0.0328 | 79.2
3 | O=C1CCN(c2cc(C(=O)N3CCC4(CCC(CCN5CCC(n6cc(NC(=O)c7cnn8ccc(N9CCOCC9)nc78)c(C(F)F)n6)CC5)CC4)CC3)ccc2Cl)C(=O)N1 [Example 42, N-(1-(1-(2-(3-(4-chloro-3-(2,4-dioxotetrahydropyrimidin-1(2H)-yl)benzoyl)-3-azaspiro[5.5]undecan-9-yl)ethyl)piperidin-4-yl)-3-(difluoromethyl)-1H-pyrazol-4-yl)-5-morpholinopyrazolo[1,5-a]pyrimidine-3-carboxamide] | 0.0186 | 0.00366 | 91.7
4 | O=C1CCN(c2cc(C(=O)N3CCC4(CCC(CCN5CCC(n6cc(NC(=O)c7cnn8ccc(N9C[C@H]%10C[C@@H]9CO%10)nc78)c(C(F)F)n6)CC5)CC4)CC3)ccc2Cl)C(=O)N1 [Example 43, 5-((1R,4R)-2-oxa-5-azabicyclo[2.2.1]heptan-5-yl)-N-(1-(1-(2-(3-(4-chloro-3-(2,4-dioxotetrahydropyrimidin-1(2H)-yl)benzoyl)-3-azaspiro[5.5]undecan-9-yl)ethyl)piperidin-4-yl)-3-(difluoromethyl)-1H-pyrazol-4-yl)pyrazolo[1,5-a]pyrimidine-3-carboxamide] | 0.045 | 0.0151 | 79.5
5 | Cc1ccc(C(=O)N2CCC3(CCC(CN4CCC(n5cc(NC(=O)c6cnn7ccc(N8C[C@H]9C[C@@H]8CO9)nc67)c(C(F)F)n5)CC4)CC3)CC2)cc1N1CCC(=O)NC1=O [Example 44, 5-((1R,4R)-2-oxa-5-azabicyclo[2.2.1]heptan-5-yl)-N-(3-(difluoromethyl)-1-(1-((3-(3-(2,4-dioxotetrahydropyrimidin-1(2H)-yl)-4-methylbenzoyl)-3-azaspiro[5.5]undecan-9-yl)methyl)piperidin-4-yl)-1H-pyrazol-4-yl)pyrazolo[1,5-a]pyrimidine-3-carboxamide] | 0.0135 | 0.0063 | 80.5
6 | Cc1ccc(C(=O)N2CCC3(CCC(CN4CCC(n5cc(NC(=O)c6cnn7ccc(N8CCC[C@H](N)C8)nc67)c(C(F)F)n5)CC4)CC3)CC2)cc1N1CCC(=O)NC1=O [Example 49, (S)-5-(3-aminopiperidin-1-yl)-N-(3-(difluoromethyl)-1-(1-((3-(3-(2,4-dioxotetrahydropyrimidin-1(2H)-yl)-4-methylbenzoyl)-3-azaspiro[5.5]undecan-9-yl)methyl)piperidin-4-yl)-1H-pyrazol-4-yl)pyrazolo[1,5-a]pyrimidine-3-carboxamide] | 0.00705 | 0.00322 | 97.1
7 | Cc1ccc(C(=O)N2CCC3(CCC(CN4CCC(n5cc(NC(=O)c6cnn7ccc(N8CC9(COC9)C8)nc67)c(C(F)F)n5)CC4)CC3)CC2)cc1N1CCC(=O)NC1=O [Example 50, N-(3-(difluoromethyl)-1-(1-((3-(3-(2,4-dioxotetrahydropyrimidin-1(2H)-yl)-4-methylbenzoyl)-3-azaspiro[5.5]undecan-9-yl)methyl)piperidin-4-yl)-1H-pyrazol-4-yl)-5-(2-oxa-6-azaspiro[3.3]heptan-6-yl)pyrazolo[1,5-a]pyrimidine-3-carboxamide] | 0.0367 | 0.00594 | 82.1
8 | O=C1CCN(c2cc(C(=O)N3CCC4(CCC(CN5CCC(n6cc(NC(=O)c7cnn8ccc(N9CCOCC9)nc78)c(C(F)F)n6)CC5)CC4)CC3)ccc2OC(F)(F)F)C(=O)N1 [Example 52, N-(3-(difluoromethyl)-1-(1-((3-(3-(2,4-dioxotetrahydropyrimidin-1(2H)-yl)-4-(trifluoromethoxy)benzoyl)-3-azaspiro[5.5]undecan-9-yl)methyl)piperidin-4-yl)-1H-pyrazol-4-yl)-5-morpholinopyrazolo[1,5-a]pyrimidine-3-carboxamide] | 0.0238 | 0.0185 | 95.4

Results, then the molecule that gave them:

Row | IC50 [1] [µM] | DC50 [2] [µM] | Dmax [2] [%] | Structure (SMILES)
9 | 0.0213 | 0.00752 | 79.2 | Cc1ccc(C(=O)N2CCC3(CCC(CN4CCC(n5cc(NC(=O)c6cnn7ccc(N8CCS(=O)(=O)CC8)nc67)c(C(F)F)n5)CC4)CC3)CC2)cc1N1CCC(=O)NC1=O [Example 55, N-(3-(difluoromethyl)-1-(1-((3-(3-(2,4-dioxotetrahydropyrimidin-1(2H)-yl)-4-methylbenzoyl)-3-azaspiro[5.5]undecan-9-yl)methyl)piperidin-4-yl)-1H-pyrazol-4-yl)-5-(1,1-dioxothiomorpholinyl)pyrazolo[1,5-a]pyrimidine-3-carboxamide]
10 | 0.00387 | 0.00041 | 96.4 | Cc1ccc(C(=O)N2CCC3(CCC(CN4CCC(n5cc(NC(=O)c6cnn7ccc(N8CCC[C@H](O)C8)nc67)c(C(F)F)n5)CC4)CC3)CC2)cc1N1CCC(=O)NC1=O [Example 56, (S)-N-(3-(difluoromethyl)-1-(1-((3-(3-(2,4-dioxotetrahydropyrimidin-1(2H)-yl)-4-methylbenzoyl)-3-azaspiro[5.5]undecan-9-yl)methyl)piperidin-4-yl)-1H-pyrazol-4-yl)-5-(3-hydroxypiperidin-1-yl)pyrazolo[1,5-a]pyrimidine-3-carboxamide]
11 | 0.00457 | 0.00058 | 96.6 | O=C1CCN(c2cc(C(=O)N3CCC4(CCC(CN5CCC(n6cc(NC(=O)c7cnn8ccc(N9CCC[C@H](O)C9)nc78)c(C(F)F)n6)CC5)CC4)CC3)ccc2Cl)C(=O)N1 [Example 57, (S)-N-(1-(1-((3-(4-chloro-3-(2,4-dioxotetrahydropyrimidin-1(2H)-yl)benzoyl)-3-azaspiro[5.5]undecan-9-yl)methyl)piperidin-4-yl)-3-(difluoromethyl)-1H-pyrazol-4-yl)-5-(3-hydroxypiperidin-1-yl)pyrazolo[1,5-a]pyrimidine-3-carboxamide]
12 | 0.0219 | 0.00936 | 96.6 | COc1ccc(C(=O)N2CCC3(CCN(CCCN4CCC(n5cc(NC(=O)c6cnn7ccc(N8CCOCC8)nc67)c(C(F)F)n5)CC4)CC3)CC2)cc1N1CCC(=O)NC1=O [Example 60, N-(3-(difluoromethyl)-1-(1-(3-(9-(3-(2,4-dioxotetrahydropyrimidin-1(2H)-yl)-4-methoxybenzoyl)-3,9-diazaspiro[5.5]undecan-3-yl)propyl)piperidin-4-yl)-1H-pyrazol-4-yl)-5-morpholinopyrazolo[1,5-a]pyrimidine-3-carboxamide]
13 | 0.00906 | 0.029 | 87.9 | COc1ccc(C(=O)N2CCC3(CCN(CCCCN4CCC(n5cc(NC(=O)c6cnn7ccc(N8CCOCC8)nc67)c(C(F)F)n5)CC4)CC3)CC2)cc1N1CCC(=O)NC1=O [Example 61, N-(3-(difluoromethyl)-1-(1-(4-(9-(3-(2,4-dioxotetrahydropyrimidin-1(2H)-yl)-4-methoxybenzoyl)-3,9-diazaspiro[5.5]undecan-3-yl)butyl)piperidin-4-yl)-1H-pyrazol-4-yl)-5-morpholinopyrazolo[1,5-a]pyrimidine-3-carboxamide]
14 | 0.0362 | 0.00918 | 79.3 | O=C1CCN(c2cc(C(=O)N3CCC4(CCC(CN5CCC(n6cc(NC(=O)c7cnn8ccc(N9CCS(=O)(=O)CC9)nc78)c(C(F)F)n6)CC5)CC4)CC3)ccc2Cl)C(=O)N1 [Example 63, N-(1-(1-((3-(4-chloro-3-(2,4-dioxotetrahydropyrimidin-1(2H)-yl)benzoyl)-3-azaspiro[5.5]undecan-9-yl)methyl)piperidin-4-yl)-3-(difluoromethyl)-1H-pyrazol-4-yl)-5-(1,1-dioxothiomorpholinyl)pyrazolo[1,5-a]pyrimidine-3-carboxamide]
15 | 0.00593 | 0.00747 | 96.1 | N[C@H]1CCCN(c2ccn3ncc(C(=O)Nc4cn(C5CCN(CC6CCC7(CC6)CCN(C(=O)c6ccc(Cl)c(N8CCC(=O)NC8=O)c6)CC7)CC5)nc4C(F)F)c3n2)C1 [Example 64, (S)-5-(3-aminopiperidin-1-yl)-N-(1-(1-((3-(4-chloro-3-(2,4-dioxotetrahydropyrimidin-1(2H)-yl)benzoyl)-3-azaspiro[5.5]undecan-9-yl)methyl)piperidin-4-yl)-3-(difluoromethyl)-1H-pyrazol-4-yl)pyrazolo[1,5-a]pyrimidine-3-carboxamide]
